pKi: −log10 of the molar value.
Biological target: GST-Bcl-2 (Homo sapiens, UniProt P10415)
Test: Time Resolved-Fluorescence Resonance Energy Transfer (TR-FRET) Bcl-2 binding assay
Conditions: competition with F-Bak peptide probe (100 nM); GST-Bcl-2 1 nM; Tb-anti-GST 1 nM; 3 hours at room temperature; Wang's equation
Procedure: Determination of the utility of compounds having Formula (I) as binders to and inhibitors of anti-apoptotic Bcl-2 proteins was performed using the Time Resolved-Fluorescence Resonance Energy Transfer (TR-FRET) Assay. Tb-anti-GST antibody was purchased from Invitrogen (Catalog No. PV4216).
(§1) Representative compounds were serially diluted in dimethyl sulfoxide (DMSO) starting at 50 μM (2× starting concentration; 10% DMSO) and 10 μL were transferred into a 384-well plate. The samples are then mixed on a shaker for 1 minute and incubated for an additional 3 hours at room temperature. For each assay, the probe/antibody and protein/probe/antibody were included on each assay plate as negative and positive controls, respectively. Fluorescence was measured on the Envision (Perkin Elmer) using a 340/35 nm excitation filter and 520/525 (F-Bak peptide) and 495/510 nm (Tb-labeled anti-Histidine antibody) emission filters.
as §1, with “The” for “Representative compounds were serially diluted in dimethyl sulfoxide (DMSO) starting at 50 μM (2× starting concentration; 10% DMSO) and 10 μL were transferred into a 384-well plate. The”, “were” for “are”
The inhibition constant (Ki) is the dissociation constant of an enzyme-inhibitor complex or a protein/small molecule complex, wherein the small molecule is inhibiting binding of one protein to another protein. So a large Ki value indicates a low binding affinity and a small Ki value indicates a high binding affinity.

GST-Bcl-2, sequence (P10415 whole entry): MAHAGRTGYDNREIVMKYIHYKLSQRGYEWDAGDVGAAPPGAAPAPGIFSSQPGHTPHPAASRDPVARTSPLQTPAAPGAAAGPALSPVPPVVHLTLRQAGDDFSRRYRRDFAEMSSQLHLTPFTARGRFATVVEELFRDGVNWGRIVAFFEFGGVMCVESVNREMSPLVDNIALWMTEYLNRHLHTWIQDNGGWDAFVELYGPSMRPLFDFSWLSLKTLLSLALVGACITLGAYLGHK

SMILES | pKi
CC1(C)CCC(CN2CCN(c3ccc(C(=O)NS(=O)(=O)c4cnc(NCC5CCOCC5)c([N+](=O)[O-])c4)c(Oc4cnc(N)c(Cl)c4)c3)CC2)=C(c2ccc(Cl)cc2)C1 [Example 449, 2-[(6-amino-5-chloropyridin-3-yl)oxy]-4-(4-{[2-(4-chlorophenyl)-4,4-dimethylcyclohex-1-en-1-yl]methyl}piperazin-1-yl)-N-({5-nitro-6-[(tetrahydro-2H-pyran-4-ylmethyl)amino]pyridin-3-yl}sulfonyl)benzamide] | > 11.00
CC1(C)CCC(CN2CCN(c3ccc(C(=O)NS(=O)(=O)c4ccc(NCC5(F)CCOCC5)c([N+](=O)[O-])c4)c(Oc4ccc(F)c5[nH]ncc45)c3)CC2)=C(c2ccc(Cl)cc2)C1 [Example 423, 4-(4-{[2-(4-chlorophenyl)-4,4-dimethylcyclohex-1-en-1-yl]methyl}piperazin-1-yl)-2-[(7-fluoro-1H-indazol-4-yl)oxy]-N-[(4-{[(4-fluorotetrahydro-2H-pyran-4-yl)methyl]amino}-3-nitrophenyl)sulfonyl]benzamide] | > 11.00
CC1(C)CCC(CN2CCN(c3ccc(C(=O)NS(=O)(=O)c4ccc(NCC5CN(C6COC6)CCO5)c([N+](=O)[O-])c4)c(Oc4cc5cc[nH]c5cc4F)c3)CC2)=C(c2ccc(Cl)cc2)C1 (stereo not shown) [Example 422, 4-(4-{[2-(4-chlorophenyl)-4,4-dimethylcyclohex-1-en-1-yl]methyl}piperazin-1-yl)-2-[(6-fluoro-1H-indol-5-yl)oxy]-N-{[3-nitro-4-({[4-(oxetan-3-yl)morpholin-2-yl]methyl}amino)phenyl]sulfonyl}benzamide] | > 11.00
CC1(C)CC(c2ccc(Cl)cc2)=C(CN2CCN(c3ccc(C(=O)NS(=O)(=O)c4ccc(OCC5(F)CCOCC5)c([N+](=O)[O-])c4)c(Oc4cc5cc[nH]c5cc4F)c3)CC2)CO1 [Example 297, 4-(4-{[4-(4-chlorophenyl)-6,6-dimethyl-5,6-dihydro-2H-pyran-3-yl]methyl}piperazin-1-yl)-2-[(6-fluoro-1H-indol-5-yl)oxy]-N-({4-[(4-fluorotetrahydro-2H-pyran-4-yl)methoxy]-3-nitrophenyl}sulfonyl)benzamide] | > 11.00
CC1(C)CCC(CN2CCN(c3ccc(C(=O)NS(=O)(=O)c4cnc(OCC5CCC(C)(O)CC5)c(Cl)c4)c(Oc4cccc5[nH]nc(N)c45)c3)CC2)=C(c2ccc(Cl)cc2)C1 (stereo not drawn) [Example 445, 2-[(3-amino-1H-indazol-4-yl)oxy]-N-({5-chloro-6-[(trans-4-hydroxy-4-methylcyclohexyl)methoxy]pyridin-3-yl}sulfonyl)-4-(4-{[2-(4-chlorophenyl)-4,4-dimethylcyclohex-1-en-1-yl]methyl}piperazin-1-yl)benzamide] | > 11.00
CO[C@H]1CC[C@H](CNc2ccc(S(=O)(=O)NC(=O)c3ccc(N4CCN(CC5=C(c6ccc(Cl)cc6)CC(C)(C)CC5)CC4)cc3Oc3cccc4[nH]c(=O)n(C)c34)cc2[N+](=O)[O-])CC1 [Example 427, 4-(4-{[2-(4-chlorophenyl)-4,4-dimethylcyclohex-1-en-1-yl]methyl}piperazin-1-yl)-N-[(4-{[(trans-4-methoxycyclohexyl)methyl]amino}-3-nitrophenyl)sulfonyl]-2-[(3-methyl-2-oxo-2,3-dihydro-1H-benzimidazol-4-yl)oxy]benzamide] | > 11.00
CC1(C)CCC(CN2CCN(c3ccc(C(=O)NS(=O)(=O)c4cnc(OCC5(F)CCC(C)(O)CC5)c(Cl)c4)c(Oc4cnc(N)c(Cl)c4)c3)CC2)=C(c2ccc(Cl)cc2)C1 (stereo not drawn) [Example 444, 2-[(6-amino-5-chloropyridin-3-yl)oxy]-N-({5-chloro-6-[(cis-1-fluoro-4-hydroxy-4-methylcyclohexyl)methoxy]pyridin-3-yl}sulfonyl)-4-(4-{[2-(4-chlorophenyl)-4,4-dimethylcyclohex-1-en-1-yl]methyl}piperazin-1-yl)benzamide] | 10.74
CC1(C)CCC(CN2CCN(c3ccc(C(=O)NS(=O)(=O)c4ccc(NC[C@H]5CC[C@H](N6CCOCC6)CC5)c([N+](=O)[O-])c4)c(Oc4cnc(N)c(Cl)c4)c3)CC2)=C(c2ccc(Cl)cc2)C1 [Example 451, 2-[(6-amino-5-chloropyridin-3-yl)oxy]-4-(4-{[2-(4-chlorophenyl)-4,4-dimethylcyclohex-1-en-1-yl]methyl}piperazin-1-yl)-N-{[4-({[trans-4-(morpholin-4-yl)cyclohexyl]methyl}amino)-3-nitrophenyl]sulfonyl}benzamide] | > 11.00
CC1(C)CCC(CN2CCN(c3ccc(C(=O)NS(=O)(=O)c4cnc(OCC5(F)CCOCC5)c(Cl)c4)c(Oc4ccc(F)c5[nH]ncc45)c3)CC2)=C(c2ccc(Cl)cc2)C1 [Example 420, N-({5-chloro-6-[(4-fluorotetrahydro-2H-pyran-4-yl)methoxy]pyridin-3-yl}sulfonyl)-4-(4-{[2-(4-chlorophenyl)-4,4-dimethylcyclohex-1-en-1-yl]methyl}piperazin-1-yl)-2-[(7-fluoro-1H-indazol-4-yl)oxy]benzamide] | > 11.00
CC1(C)CCC(CN2CCN(c3ccc(C(=O)NS(=O)(=O)c4ccc(NCC5(F)CCOCC5)c([N+](=O)[O-])c4)c(Oc4cccc5[nH]nc(N)c45)c3)CC2)=C(c2ccc(Cl)cc2)C1 [Example 428, 2-[(3-amino-1H-indazol-4-yl)oxy]-4-(4-{[2-(4-chlorophenyl)-4,4-dimethylcyclohex-1-en-1-yl]methyl}piperazin-1-yl)-N-[(4-{[(4-fluorotetrahydro-2H-pyran-4-yl)methyl]amino}-3-nitrophenyl)sulfonyl]benzamide] | > 11.00
CC1(C)CCC(CN2CCN(c3ccc(C(=O)NS(=O)(=O)c4cnc(OCC5CCC(C)(O)CC5)c(C#N)c4)c(Oc4cc(F)cc5[nH]ncc45)c3)CC2)=C(c2ccc(Cl)cc2)C1 (stereo not drawn) [Example 453, 4-(4-{[2-(4-chlorophenyl)-4,4-dimethylcyclohex-1-en-1-yl]methyl}piperazin-1-yl)-N-({5-cyano-6-[(trans-4-hydroxy-4-methylcyclohexyl)methoxy]pyridin-3-yl}sulfonyl)-2-[(6-fluoro-1H-indazol-4-yl)oxy]benzamide] | > 11.00
CC1(C)CCC(CN2CCN(c3ccc(C(=O)NS(=O)(=O)c4ccc(NCC5CCC(C)(O)CC5)c([N+](=O)[O-])c4)c(Oc4cnc(N)c(Cl)c4)c3)CC2)=C(c2ccc(Cl)cc2)C1 (stereo not drawn) [Example 437, 2-[(6-amino-5-chloropyridin-3-yl)oxy]-4-(4-{[2-(4-chlorophenyl)-4,4-dimethylcyclohex-1-en-1-yl]methyl}piperazin-1-yl)-N-[(4-{[(cis-4-hydroxy-4-methylcyclohexyl)methyl]amino}-3-nitrophenyl)sulfonyl]benzamide] | > 11.00
Cn1c(=O)[nH]c2cccc(Oc3cc(N4CCN(CC5=C(c6ccc(Cl)cc6)CC(C)(C)CC5)CC4)ccc3C(=O)NS(=O)(=O)c3ccc(OCC4CCOCC4)c(Cl)c3)c21 [Example 438, 4-(4-{[2-(4-chlorophenyl)-4,4-dimethylcyclohex-1-en-1-yl]methyl}piperazin-1-yl)-N-{[3-chloro-4-(tetrahydro-2H-pyran-4-ylmethoxy)phenyl]sulfonyl}-2-[(3-methyl-2-oxo-2,3-dihydro-1H-benzimidazol-4-yl)oxy]benzamide] | 10.51
